This note sets out measurements from patent publication EP4455142A1, “NOVEL INHIBITOR OF QPCTL AND/OR QC” (Scenic Immunology B.V., priority 2023, dated 2024).

Data set [1] is described as follows: Kinetic solubility. The data set is classed as physicochemical. Conditions: aqueous buffer; 50 mM phosphate buffer (pH 7.4), 24 hours at room temperature. As for the experimental part: To assess the solubility of test compounds 10 µL of a 10 mM solution in DMSO was added to the lower chamber of a whatman miniuniprep (PTFE Filter Media with Polypropylene Housing) vial. 490 µL of 50 mM phosphate buffer (pH 7.4) was added to the lower chamber, the samples were vortexed for at least two minutes and then shaken on a shaker for 24 hours at room temperature at the speed of 880 rpm. The samples were then centrifuged for 20 minutes at 4000 rpm, compressed and the filtrates were injected into a HPLC-UV and LC-MS/MS system to calculate the concentration compared to the standard curve using a ACQUITY UPLC BEH C18 1.7 µm 2.1 * 50 mm column.

For data set [2], the target named is T1, recombinant QC enzyme (Homo sapiens, UniProt Q16769).
T1 construct: bacterial expression of residues 33-361 of uniprot ID Q16769, fused to a His tag; His tag (cleaved yes); made in house
The data set can be described thus: Assay 2 - QC potency, fluorescent enzymatic assay (H-Gln-AMC, coupled pGAPase detection). The data set is classed as biochemical. Conditions: 1 hour at 37°C. The procedure: After scale-up, expression and lysis, protein was purified by Ni-NTA IMAC, dialysed in the presence of Factor Xa, further purified by Ni-NTA reverse IMAC and finally filtrated for size on a Superdex 200 16/60 column. Final protein was concentrated using a spin concentrator at 10 kDa molecular weight cut-off and formulated in 150 mM NaCl, 50 mM Tris-HCl, 50% Glycerol, pH 8.0.
Pyroglutamylation was measured by conversion of glutamine-4-amino-7-methylcoumarine (H-Gln-AMC, Bachem) to pyroglutamyl-AMC, which is subsequently a specific substrate for pyroglutamylaminopeptidase (pGAPase, Qiagen), releasing free AMC which can be fluorescently detected. For a typical inhibition assay, 7.5 µL aliquots of threefold dilutions of test compound in 50 mM Tris pH8 buffer were plated in 384-well plates. 15 µL 20 µM h-Gln-AMC (diluted from a 40 mM stock dissolved in 25 mM HEPES using 50 mM Tris-HCl pH 8.0) was added to each well. Finally, 7.5 µL, 3 ng/µL recombinant QC enzyme was added and the reaction mixture was incubated for 1 hour at 37°C. A 5 minute incubation at 98°C was then performed to denature the QC enzyme and stop the reaction.
25 µL of the pyroglutamylation reaction mixture was transferred into an empty plate and to that, 25 µL of the pGAPase enzyme solution was added. Plates were then incubated for 25 minutes at room temperature before fluorescence readings were taken on an Envision2 plate reader with excitation set at 380 nm and emission at 450 nm.
Controls were taken along containing pyroglutamylated-AMC (Bachem, dissolved at 10 mM in DMSO) instead of H-Gln-AMC to control for pGAPase inhibition.
IC50 values are calculated using non-linear regression analysis with GraphPad Prism software.

A short description of data set [3]: CACO-2-based cell-permeation and efflux. The data set is classed as in vitro ADME. As to conditions: human, 2 µM compound, pH 7.40; for Papp A→B at 2 h, 2 µM: Caco-2, pH 7.4, A2B; for Papp B→A at 2 h, 2 µM: Caco-2, pH 7.4, B2A. As for the experimental part:
CACO-2 (ATCC, Manassas, VA, USA) monolayers on polyethylene membranes in 96-well insert plates were incubated for 2 hours in 5% C02, 37°C with 2 µM compound tested bidirectionally in duplicate using HBSS with 10 mM HEPES at pH 7.40 ±0.05 as transport buffer. Final DMSO Concentrations were adjusted to less than 1%. All samples were mixed with acetonitrile containing internal standard and centrifuged at 3220 x g for 10 minutes. Subsequently, 100 µL supernatant solution was diluted with 100 µL distilled water for LC/MS/MS analysis. Lucifer yellow rejection assays were applied after the transport assay to ensure CACO-2 cell monolayer integrity.
The apparent permeability coefficient Papp (cm/s) was calculated using the equation: Papp = (dCr/dt) × Vr/(A×CO) [formula] where dCr/dt is the cumulative concentration of compound in the receiver chamber as a function of time (µM/s); Vr is the solution volume in the receiver chamber (0.075 mL on the apical side, 0.25 mL on the basolateral side); A is the surface area for the transport, i.e., 0.0804 cm^2 or the area of the monolayer; CO is the initial concentration in the donor chamber (µM).
On the technique in general: Caco-2 monolayers are a common model of the intestinal barrier.

The nature of data set [4]: Microsomal stability, rat (RLM). The data set is classed as in vitro ADME. As to conditions: liver microsomes; SD rat microsomes, 0.5 mg protein/mL, 1 µM test compound. The procedure: (§1) In order to assess metabolic stability of test compounds, commercially acquired CD-1 mouse liver microsome preparations were incubated in 100 µL at a final concentration of 0.5 mg protein/mL, 1 µM test compound, 0.99% methanol and 0.01% DMSO, after a 10 minute pre-incubation at 37°C and addition of 0.1 volumes 10 U/mL NADPH in 10 mM MgCl2. Reactions were stopped by addition of 300 µL cold acetonitrile containing internal standards at t = 0, 5, 10, 20, 30, and 60 minutes. Samples were submitted to LC-MS/MS analysis subsequently and the slope of linear regression of time versus In(% Remaining concentration) was derived to calculate t½ as t½= In(2) /(-Slope). Then Clint(mic) and Clint(liver) were calculated as follows: CLint(mk) = (0.693)/(In vitro T1/2) · (1)/(mg/mL microsomal protein in reaction system) [formula] CLint(liver) = CLint(mic) · (mg microsomes)/(g liver) · (g liver)/(kg body weight) [formula]
(§2) The same procedure was performed for human microsomes, SD rat microsomes and (beagle) dog microsomes.
Where 45 mg microsomal protein/g liver and 40 g liver/kg rat bodyweight were used as standardized parameters for rat microsomes.
(Liver microsomes are a subcellular fraction often used to study metabolism.)

A short description of data set [5]: Microsomal stability, dog (DLM). The data set is classed as in vitro ADME. Conditions: liver microsomes; (beagle) dog microsomes, 0.5 mg protein/mL, 1 µM test compound. The procedure: as §1, §2
Where 45 mg microsomal protein/g liver and 32 g liver/kg dog bodyweight were used as standardized parameters for […].

For data set [6], the system named is Pan02 cells. Put plainly: In vivo Pan02 syngeneic mouse model. On the set-up: species or system C57BL/6 female mice. As for the experimental part:
Anti tumor effects were evaluated in the Pan02, pancreatic adenocarcinoma syngeneic mouse tumor model. For this study 3 × 10^6 Pan02 cells were injected in the right front flank of C57BL/6 female mice. Tumor size was measured and when tumors reached an average size of 80-120 mm^3, treatment was started. Treatment consisted of compound alone, or in combination with the anti PD-L1 antibody (B7-H1). Compound (1) was administered orally at 100 mg/kg once daily and anti-PD-L1 antibody was administered intraperitoneally at 10 mg/kg twice weekly. Tumor progression was monitored by tumor volume measurement using a caliper.

In brackets after ≈: the same amount, converted by molar mass.

T1 sequence (Q16769 33-361): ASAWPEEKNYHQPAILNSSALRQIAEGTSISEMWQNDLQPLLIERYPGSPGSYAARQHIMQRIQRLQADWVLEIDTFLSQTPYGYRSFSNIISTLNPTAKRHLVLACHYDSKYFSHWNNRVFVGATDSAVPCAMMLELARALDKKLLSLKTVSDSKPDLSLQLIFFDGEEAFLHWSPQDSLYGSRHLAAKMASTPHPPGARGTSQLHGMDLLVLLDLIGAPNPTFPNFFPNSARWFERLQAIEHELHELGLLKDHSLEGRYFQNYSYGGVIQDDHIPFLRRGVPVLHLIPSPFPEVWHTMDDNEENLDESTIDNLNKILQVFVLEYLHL

Usually solubility stands for how much of the substance goes into solution per volume. A higher solubility goes with much dissolved substance. A word on the IC50: it is the concentration that inhibits the measured activity by half. A word on the Papp A→B: it is the apparent permeability from the apical to the basolateral side of a cell layer. For orientation: Papp B→A means the apparent permeability from the basolateral to the apical side of a cell layer. A word on the CLint scaled: it is the capacity of the preparation to metabolise the compound, expressed as a volume cleared per time. Read a high CLint scaled as faster metabolism. `O=C1OCC(c2ccc(N3CCCC3)cc2)N1c1ccc2[nH]cnc2c1` (single isomer, unassigned) [(18)-ent2] registered a solubility at 24 h in data set [1] of 60 µM (≈ 20.9 µg/mL). Besides, the IC50 in data set [2] turned out to be 31.2 nM. For the same compound, the Papp A→B at 2 h, 2 µM in data set [3] amounted to 2.8 ×10⁻⁶ cm/s. Also, the Papp B→A at 2 h, 2 µM in data set [3] was 18.8 ×10⁻⁶ cm/s. In addition, the CLint scaled at 1 µM was found to be 1070 mL/min/kg in data set [4] and 32.8 mL/min/kg in data set [5].
`O=C1OCC(c2ccc(C3CCC(F)(F)CC3)cc2)N1c1ccc2[nH]cnc2c1` (single isomer, unassigned) [(19)-ent2] had a solubility at 24 h in data set [1] of 42 µM (≈ 16.7 µg/mL). For the same compound, in data set [3], the Papp A→B at 2 h, 2 µM is 3.9 ×10⁻⁶ cm/s and the Papp B→A at 2 h, 2 µM was determined as 23.9 ×10⁻⁶ cm/s. The compound further gave a CLint scaled at 1 µM in data set [4] of 49.9 mL/min/kg. In data set [5], the CLint scaled at 1 µM is 21.8 mL/min/kg.
With `O=C1OC[C@H](c2ccc(-c3cnn(C(F)(F)F)c3)cc2F)N1c1ccc2[nH]cnc2c1` [Compound (1)], the solubility at 24 h in data set [1] is 121 µM (≈ 52.2 µg/mL). In addition, the IC50 in data set [2] amounted to 10.3 nM. Moreover, in data set [3], the Papp A→B at 2 h, 2 µM amounted to 2 ×10⁻⁶ cm/s and the Papp B→A at 2 h, 2 µM is 21.9 ×10⁻⁶ cm/s. The “anti tumor effect (tumor volume), combined with anti-PD-L1 antibody” value in data set [6] ((1) orally 100 mg/kg once daily plus anti-PD-L1 antibody intraperitoneally 10 mg/kg twice weekly) is “tumor regression”. Besides, in data set [6] ((1) orally 100 mg/kg once daily, by itself), the “anti tumor effect (tumor volume), compound alone” value is recorded as “tumor growth inhibition”.
